Values of other authors as cited in patent US12576064B2, “Urolithin gummy (pectin) formulations” (Amazentis SA, priority 2023, dated 2026).

System: myotubes
Conditions: in vitro

Compound	mean diameter of myotubes
O=c1oc2cc(O)ccc2c2ccccc12 [Urolithin B]	increased
O=c1oc2cc(O)ccc2c2ccc(O)cc12 [Urolithin A]	not seen
